Values quoted from earlier work in US8193207B2, “Lactam compounds and methods of using the same” (Incyte Corporation, priority 2005, dated 2012).

Biological target: T1, 11βHSD1 in the eye (Homo sapiens, UniProt P28845)
T1 construct: host or cells: eye tissue (non-pigmented epithelial cells) of healthy volunteers, in vivo
Conditions: healthy volunteers; after seven days of carbenoxolone treatment

T1 sequence (P28845 whole entry): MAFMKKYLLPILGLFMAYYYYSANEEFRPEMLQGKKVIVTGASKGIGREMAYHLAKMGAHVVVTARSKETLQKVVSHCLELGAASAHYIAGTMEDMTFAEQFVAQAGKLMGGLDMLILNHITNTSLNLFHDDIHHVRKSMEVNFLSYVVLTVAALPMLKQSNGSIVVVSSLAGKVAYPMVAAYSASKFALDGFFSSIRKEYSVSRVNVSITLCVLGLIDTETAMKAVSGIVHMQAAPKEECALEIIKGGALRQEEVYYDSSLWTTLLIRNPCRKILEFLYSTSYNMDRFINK

IOP reduction: 18%
Structure (SMILES): CC1(C)[C@@H](OC(=O)CCC(=O)O)CC[C@]2(C)[C@H]3C(=O)C=C4[C@@H]5C[C@@](C)(C(=O)O)CC[C@]5(C)CC[C@@]4(C)[C@]3(C)CC[C@@H]12 [carbenoxolone]
